The assay deals with PhdB (phenylacetate decarboxylase), sewage culture version (uncultured Acidobacteriota bacterium, UniProt A0A2P1UAH0). It is filed as biochemical.
PhdB (phenylacetate decarboxylase), sewage culture version, sequence (A0A2P1UAH0 1-839): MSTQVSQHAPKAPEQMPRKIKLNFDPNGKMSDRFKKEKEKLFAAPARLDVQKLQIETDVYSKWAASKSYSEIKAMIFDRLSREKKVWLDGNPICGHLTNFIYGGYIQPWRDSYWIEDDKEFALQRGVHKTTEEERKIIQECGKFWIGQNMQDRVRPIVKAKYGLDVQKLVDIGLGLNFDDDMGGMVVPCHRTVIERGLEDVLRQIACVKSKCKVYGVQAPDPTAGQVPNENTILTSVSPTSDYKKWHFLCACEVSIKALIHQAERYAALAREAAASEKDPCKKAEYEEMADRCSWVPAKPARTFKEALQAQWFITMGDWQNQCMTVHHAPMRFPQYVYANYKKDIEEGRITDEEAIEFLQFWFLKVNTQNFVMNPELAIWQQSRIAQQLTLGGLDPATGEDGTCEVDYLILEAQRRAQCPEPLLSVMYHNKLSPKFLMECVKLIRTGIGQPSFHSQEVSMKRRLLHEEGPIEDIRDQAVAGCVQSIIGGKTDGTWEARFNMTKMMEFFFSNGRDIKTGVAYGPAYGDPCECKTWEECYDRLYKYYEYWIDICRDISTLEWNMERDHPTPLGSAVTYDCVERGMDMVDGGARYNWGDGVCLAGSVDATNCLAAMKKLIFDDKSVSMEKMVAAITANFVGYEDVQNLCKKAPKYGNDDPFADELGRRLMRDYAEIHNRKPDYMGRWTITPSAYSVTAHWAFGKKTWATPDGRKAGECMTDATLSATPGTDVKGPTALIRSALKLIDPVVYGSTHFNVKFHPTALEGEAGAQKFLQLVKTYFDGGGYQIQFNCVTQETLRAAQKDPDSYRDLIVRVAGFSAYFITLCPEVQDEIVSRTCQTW

In general, Ki refers to a measure of affinity in units of concentration, obtained from inhibition or displacement. As to `O=C(O)C(F)(F)c1ccccc1` [α,α‐difluorophenylacetate], the affinity, expressed as Ki, was 370 ± 30 µM.

For the origin of these results see paper PMC7079210 (Chembiochem, 2019).
